One block for each molecule: values may come before it.
Columns and labels:
[1] = biological target: human JAK2 (a.a. 828-1132) (Homo sapiens (Human), UniProt O60674); test: In vitro JAK kinase assay (HTRF), JAK2; format: biochemical; details: JAK2/JAK1 IC50 ratio, 1 mM ATP
[2] = tested on: JAK1-phosphorylation in HaCaT keratinocytes; test: JAK1-phosphorylation (anti-pJAK1 immunofluorescence) in eNA-stimulated HaCaT; format: cell-based, human; details: inhibitor 1 μM
[3] = biological target: human JAK1 (a.a. 837-1142) (Homo sapiens, UniProt P23458); test: In vitro JAK kinase assay (HTRF), JAK1; format: biochemical; details: 1 mM ATP
TREX1−/− mice = test: Topical treatment of CLE-like lesions in UV-stimulated lupus-prone TREX1-/- mice; format: in vivo, mouse; details: 1% topical, seven days
Excerpt: TREX1^−/− mice (generated on C57BL/6J background; Cancer Research Institute, London, UK) were bred and maintained under specific pathogen-free conditions at the animal core facility of UKB Bonn (HET, Bonn, Germany). TREX1^−/− mice (n=8) were back-shaved and treated with 0.2% DNFB (1-Fluor-2,4-dinitrobenzol, Sigma Aldrich). 4 days later, UV-irradiation on 3 sequential days started with 450 mJ/cm^2 UVB for 115 seconds per day using UV801KL (Waldmann, Villingen-Schwenningen, Germany). For 7 days 1% INCB039110 or vehicle solved in DMSO and olive oil (50 μL per mouse) were applied topically. Every day photos of mice were taken and every 2 days mice were weighed.

[4] = tested on: CLE-typical genes in NHEK; test: Gene expression (RNA sequencing, KEGG pathways) in eNA-stimulated NHEK; format: cell-based, human; details: for Count: number of genes >2-fold downregulated: NHEK
Method: To analyze the functional principle and effect of JAK inhibition, the following established in vitro models of CLE were used. Immortalized keratinocytes (HaCaT), were acquired from CLS Cell Lines Service GmbH, Eppelheim, Germany), normal human epidermal keratinocytes (NHEKs, FC-0025) and Human epidermis equivalents (epiCS, CS-1001) from CellSystems, Troisdorf, Germany. These cell lines were cultured according the manufactures protocols. Cultured keratinocytes were stimulated with endogenous nucleic acids (eNA, 1.25 μg/mL) isolated from unstimulated keratinocytes using the “Genomic DNA from tissue” kit (Machery-Nagel, Dueren, Germany). Lipofectamine 2000 (Invitrogen, Carlsbad, USA) functioned as a transfection reagent (2.5 μL/mL). […] All experiments were implemented in biological triplicates. Enzyme-linked immunosorbent assays for human CXCL10 (DY266-05 R&D systems) were performed using DuoSet Ancillary Reagent Kit 2 (DY008 R&D systems) according to the supplied protocol, measured by Synergy HT Multi-Detection Multiplate Reader (BioTek, Winooski, VT, USA) and read out with Gen5 software (version 1.11.5).
To investigate the efficacy of pharmacological JAK1 inhibition, in vitro analyses in three different CLE-models were performed (i) NHEK-cells, (ii) HaCaT-cells and (iii) 3D epidermis equivalents.

[5] = tested on: patients with systemic lupus erythematosus; details: cited from earlier work
SLE patients = details: cited from earlier work

human JAK2 (a.a. 828-1132), sequence (O60674 828-1132): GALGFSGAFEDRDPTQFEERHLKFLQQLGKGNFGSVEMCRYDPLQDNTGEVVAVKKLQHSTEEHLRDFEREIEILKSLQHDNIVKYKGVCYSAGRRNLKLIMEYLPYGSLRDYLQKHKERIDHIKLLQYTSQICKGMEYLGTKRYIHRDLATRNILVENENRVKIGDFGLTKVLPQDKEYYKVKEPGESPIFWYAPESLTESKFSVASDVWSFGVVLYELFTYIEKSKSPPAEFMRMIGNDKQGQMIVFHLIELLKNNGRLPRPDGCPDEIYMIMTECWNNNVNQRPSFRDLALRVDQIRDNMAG

JAK2/JAK1 [1]: >10
IC50 [3]: < 10 nM
Molecule: N#CCC1(n2cc(-c3ncnc4[nH]ccc34)cn2)CN(C2CCN(C(=O)c3ccnc(C(F)(F)F)c3F)CC2)C1 [Compound 1, {1-{1-[3-Fluoro-2-(trifluoromethyl)isonicotinoyl]piperidin-4-yl}-3-[4-(7H-pyrrolo[2,3-d]pyrimidin-4-yl)-1H-pyrazol-1-yl]azetidin-3-yl}acetonitrile]
activation of JAK1 (JAK1-phosphorylation) [2]: significantly decreased
histological features: epidermal thickness and infiltrating dermal immune cells (TREX1−/− mice): significantly improved
lesional skin regarding erythema, induration, scaling and size (TREX1−/− mice): continuously improved
lupus-skin-activity-score (adapted CLASI score) (TREX1−/− mice; compared to placebo-treated mice): significantly reduced
Count: number of genes >2-fold downregulated ([4]; Arachidonic acid metabolism hsa00590): 4
Count: number of genes >2-fold downregulated ([4]; Chemokine signalling pathway hsa04062): 5
Count: number of genes >2-fold downregulated ([4]; Cytokine-cytokine receptor interaction hsa04060): 9
Count: number of genes >2-fold downregulated ([4]; Cytosolic DNA-sensing pathway hsa04623): 3
Count: number of genes >2-fold downregulated ([4]; Ether lipid metabolism hsa00565): 3
Count: number of genes >2-fold downregulated ([4]; Linoleic acid metabolism hsa00591): 3
Count: number of genes >2-fold downregulated ([4]; Toll-like receptor signalling pathway hsa04620): 4
Count: number of genes >2-fold downregulated ([4]; alpha-Linolenic acid metabolism hsa00592): 3
downregulated expression of CLE-typical genes ([4]; eNA-stimulated NHEK, p<0.05): > 2 fold

Molecule: N#CC[C@H](C1CCCC1)n1cc(-c2ncnc3[nH]ccc23)cn1 [Ruxolitinib, (3R)-3-cyclopentyl-3-[4-(7H-pyrrolo[2,3-d]pyrimidin-4-yl)-1H-pyrazol-1-yl]propanenitrile, reference compound]
activation of JAK1 (JAK1-phosphorylation) [2]: significantly decreased

Molecule: CCS(=O)(=O)N1CC(CC#N)(n2cc(-c3ncnc4[nH]ccc34)cn2)C1 [baricitinib]
efficacy in treatment of SLE ([5]; 2 mg or 4 mg once daily for 24 weeks, vs placebo): not effective
CLASI activity score ([5]; exploratory end point): no improvement

B1: anifrolumab: anti-IFNαβ-receptor antibody (antibody, chains of the INN, looked up)
heavy: EVQLVQSGAEVKKPGESLKISCKGSGYIFTNYWIAWVRQMPGKGLESMGIIYPGDSDIRYSPSFQGQVTISADKSITTAYLQWSSLKASDTAMYYCARHDIEGFDYWGRGTLVTVSSASTKGPSVFPLAPSSKSTSGGTAALGCLVKDYFPEPVTVSWNSGALTSGVHTFPAVLQSSGLYSLSSVVTVPSSSLGTQTYICNVNHKPSNTKVDKRVEPKSCDKTHTCPPCPAPEFEGGPSVFLFPPKPKDTLMISRTPEVTCVVVDVSHEDPEVKFNWYVDGVEVHNAKTKPREEQYNSTYRVVSVLTVLHQDWLNGKEYKCKVSNKALPASIEKTISKAKGQPREPQVYTLPPSREEMTKNQVSLTCLVKGFYPSDIAVEWESNGQPENNYKTTPPVLDSDGSFFLYSKLTVDKSRWQQGNVFSCSVMHEALHNHYTQKSLSLSPG
light: EIVLTQSPGTLSLSPGERATLSCRASQSVSSSFFAWYQQKPGQAPRLLIYGASSRATGIPDRLSGSGSGTDFTLTITRLEPEDFAVYYCQQYDSSAITFGQGTRLEIKRTVAAPSVFIFPPSDEQLKSGTASVVCLLNNFYPREAKVQWKVDNALQSGNSQESVTEQDSKDSTYSLSSTLTLSKADYEKHKVYACEVTHQGLSSPVTKSFNRGEC
CLASI skin score (SLE patients): significantly reduced

From US11992490B2, “Use of JAK1 inhibitors for the treatment of cutaneous lupus erythematosus and Lichen planus (LP)” (Incyte Corporation, priority 2019, dated 2024)
